Measurements as given in patent US8835429B2, “Pyrimidine compounds, their use as mTOR kinase and Pl3 kinase inhibitors, and their syntheses” (Wyeth LLC, priority 2009, dated 2014).

Tests used:
PI3K-alpha = PI3K-alpha (Homo sapiens, UniProt P42336); assay: PI3K-alpha fluorescence polarization assay; assay type: biochemical; conditions: 20 μM PIP2, 25 μM ATP; read-out: PI3Kα IC50
Method: The reaction buffer was 20 mM HEPES, pH 7.5, 2 mM MgCl2, 0.05% CHAPS; and 0.01% βME (added fresh). The stop/detection buffer was 100 mM HEPES, pH 7.5, 4 mM EDTA, 0.05% CHAPS; ATP 20 mM in water; PIP2 (diC8, Echelon, Salt Lake City Utah cat #P-4508) 1 mM in water (MW=856.5). The GST-GRP was 1.75 mg/mL or 1.4 mg/mL in 10% glycerol. The red detector (TAMRA) was 2.5 μM. Nunc 384-well black polypropylene fluorescent plates were used for PI3K assays.
The assay is run by placing 5 μL of diluted enzyme per well, then 5 μL of diluted compound (or 9.5 μL enzyme then 0.5 μL compound in DMSO) is added and mixed. Then, 10 μL substrate is added to start the reaction. The samples are incubated 30-60 minutes, then the reaction is stopped by adding 20 μL stop/detector mix. PI3K is diluted with reaction buffer (e.g., 5 μL or 7.5 μL PI3K into 620 μL reaction buffer), and 5 μL of diluted enzyme is used per well. A 5 μL portion of reaction buffer or of drug diluted in buffer (e.g., 4 μL/100 so final DMSO is 1% in reaction) is added to each. Pipetting up and down mixes the samples. Alternatively, the enzyme can be diluted to 1215 μL. In this case 9.8 μL is added per well and 0.2 μL compound is added in DMSO.
To prepare 1 mL of substrate solution, 955 μL reaction buffer, 40 μL PIP2, and 2.5 μL ATP are mixed. 10 μL of substrate is added to each well to start the reaction. […] The stop/detector mix is prepared by mixing 4 μL red detector and 1.6 μL or 2.0 μL GST-GRP with 1 mL stop buffer, which results in 10 nM probe and 70 nM GST-GRP. 20 μL of the stop/detector mix is added to each well to stop the reaction. The plates are read after 30-90 minutes keeping the red probe solutions dark. For the zero time point, stop/detector mix is added to the enzyme just before adding substrate. For an extra control, stop/detector mix is added to buffer (no enzyme) and substrate or to just buffer (no substrate). […] The recommended reaction has 0.06 μL per 20 μL (0.015 μg/20 μL) or 0.01125 μg/15 μL or 0.75 μg/mL.
Plates are read on machines with filters for TAMRA. The units are mP with no enzyme controls reading app 190-220 mP units. Fully active enzyme reduces fluorescence polarization down to 70-100 mP after 30 minutes. An active compound raises the mP values halfway to control or to 120-150 mP units.

LNCap = assay: In vitro cell growth assay (MTS), LNCap; assay type: cell-based; conditions: LNCaP, 72 h, human prostate line, three days after drug treatment
Method: (§1) The cell lines used were human prostate lines LNCap and PC3MM2, human breast lines MDA468 and MCF7, human renal line HTB44 (A498), human colon line HCT116, and human ovarian line OVCAR3. Cells were plated in 96-well culture plates. One day following plating, the inhibitors were added to cells. Three days after drug treatment, viable cell densities were determined by metabolic conversion (by viable cells) of the dye MTS, a well-established cell proliferation assay. The assays were performed using an assay kit purchased from Promega Corp. (Madison, Wis.) following the protocol supplied with the kit. The MTS assay results were read in a 96-well plate reader by measuring absorbance at 490 nm. The effect of each treatment was calculated as percent of control growth relative to the vehicle-treated cells grown in the same culture plate.

mTOR = mTOR (Homo sapiens, UniProt P42345); assay: mTOR enzyme assay (DELFIA, purified FLAG-TOR, His6-S6K substrate); assay type: biochemical; design: FLAG; conditions: 100 μM ATP, 2 hours
Chain of mTOR (P42345 1360-2549 limits assumed): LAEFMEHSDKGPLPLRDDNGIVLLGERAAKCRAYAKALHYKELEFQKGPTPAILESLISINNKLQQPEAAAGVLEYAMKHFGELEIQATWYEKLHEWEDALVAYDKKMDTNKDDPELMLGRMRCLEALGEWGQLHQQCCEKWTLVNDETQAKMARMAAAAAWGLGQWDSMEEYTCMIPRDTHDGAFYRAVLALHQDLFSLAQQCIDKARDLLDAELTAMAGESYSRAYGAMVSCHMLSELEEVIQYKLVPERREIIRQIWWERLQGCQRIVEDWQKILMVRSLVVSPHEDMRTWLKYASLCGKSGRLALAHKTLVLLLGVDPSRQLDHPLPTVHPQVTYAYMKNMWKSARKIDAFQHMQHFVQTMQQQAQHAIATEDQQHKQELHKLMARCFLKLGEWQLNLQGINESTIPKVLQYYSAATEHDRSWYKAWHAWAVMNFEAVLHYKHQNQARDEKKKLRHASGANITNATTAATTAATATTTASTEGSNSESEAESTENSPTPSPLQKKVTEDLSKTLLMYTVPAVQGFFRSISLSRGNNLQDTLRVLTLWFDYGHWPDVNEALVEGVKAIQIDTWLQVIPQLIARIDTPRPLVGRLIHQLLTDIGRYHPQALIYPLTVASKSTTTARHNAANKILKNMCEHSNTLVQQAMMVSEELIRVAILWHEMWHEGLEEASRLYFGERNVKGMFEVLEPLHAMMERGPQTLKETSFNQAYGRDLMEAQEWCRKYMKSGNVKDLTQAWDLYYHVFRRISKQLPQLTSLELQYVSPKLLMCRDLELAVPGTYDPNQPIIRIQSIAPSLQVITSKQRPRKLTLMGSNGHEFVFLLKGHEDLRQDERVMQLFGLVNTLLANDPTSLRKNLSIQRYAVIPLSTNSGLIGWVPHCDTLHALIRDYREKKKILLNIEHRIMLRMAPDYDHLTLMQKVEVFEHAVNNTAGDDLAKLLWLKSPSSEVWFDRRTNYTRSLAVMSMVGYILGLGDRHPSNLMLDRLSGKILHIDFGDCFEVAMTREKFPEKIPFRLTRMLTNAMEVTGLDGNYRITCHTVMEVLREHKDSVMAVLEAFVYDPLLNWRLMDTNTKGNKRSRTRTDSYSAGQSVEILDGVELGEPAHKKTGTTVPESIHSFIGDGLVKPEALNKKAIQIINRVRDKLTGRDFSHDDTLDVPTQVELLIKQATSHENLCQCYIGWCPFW

MDA468 = assay: In vitro cell growth assay (MTS), MDA468; assay type: cell-based; conditions: 72 h, human breast line MDA468, three days after drug treatment, read-out: MDA IC50
Method: as §1

Chain of PI3K-alpha (P42336 whole entry, species assumed): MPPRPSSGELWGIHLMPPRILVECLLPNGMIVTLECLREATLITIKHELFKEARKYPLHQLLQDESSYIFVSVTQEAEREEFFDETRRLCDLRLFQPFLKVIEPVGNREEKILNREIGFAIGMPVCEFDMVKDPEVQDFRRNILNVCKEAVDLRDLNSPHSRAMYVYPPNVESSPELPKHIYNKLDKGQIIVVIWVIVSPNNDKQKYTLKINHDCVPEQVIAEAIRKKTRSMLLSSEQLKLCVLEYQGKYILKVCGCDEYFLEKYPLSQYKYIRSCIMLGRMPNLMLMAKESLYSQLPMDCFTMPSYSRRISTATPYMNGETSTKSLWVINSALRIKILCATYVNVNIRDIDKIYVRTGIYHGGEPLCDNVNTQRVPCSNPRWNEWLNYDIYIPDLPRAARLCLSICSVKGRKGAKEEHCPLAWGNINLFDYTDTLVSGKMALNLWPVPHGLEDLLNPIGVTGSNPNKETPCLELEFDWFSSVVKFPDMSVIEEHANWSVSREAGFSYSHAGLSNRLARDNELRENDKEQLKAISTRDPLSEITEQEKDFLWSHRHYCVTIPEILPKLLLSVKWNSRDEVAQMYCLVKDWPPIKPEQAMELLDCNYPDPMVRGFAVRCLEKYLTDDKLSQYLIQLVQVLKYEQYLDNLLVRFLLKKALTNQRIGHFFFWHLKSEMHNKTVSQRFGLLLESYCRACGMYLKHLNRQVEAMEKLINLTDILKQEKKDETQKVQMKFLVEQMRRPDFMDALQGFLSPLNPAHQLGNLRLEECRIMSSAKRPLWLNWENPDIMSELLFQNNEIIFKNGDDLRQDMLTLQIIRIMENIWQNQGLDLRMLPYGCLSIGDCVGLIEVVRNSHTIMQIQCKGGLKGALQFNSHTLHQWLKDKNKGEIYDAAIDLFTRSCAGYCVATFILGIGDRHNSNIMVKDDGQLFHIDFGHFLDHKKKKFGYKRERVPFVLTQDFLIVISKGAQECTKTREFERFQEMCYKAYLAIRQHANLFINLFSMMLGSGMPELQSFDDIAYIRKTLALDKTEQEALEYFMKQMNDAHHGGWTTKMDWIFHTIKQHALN
Chain of PI3K-alpha (P27986 whole entry partner, species assumed): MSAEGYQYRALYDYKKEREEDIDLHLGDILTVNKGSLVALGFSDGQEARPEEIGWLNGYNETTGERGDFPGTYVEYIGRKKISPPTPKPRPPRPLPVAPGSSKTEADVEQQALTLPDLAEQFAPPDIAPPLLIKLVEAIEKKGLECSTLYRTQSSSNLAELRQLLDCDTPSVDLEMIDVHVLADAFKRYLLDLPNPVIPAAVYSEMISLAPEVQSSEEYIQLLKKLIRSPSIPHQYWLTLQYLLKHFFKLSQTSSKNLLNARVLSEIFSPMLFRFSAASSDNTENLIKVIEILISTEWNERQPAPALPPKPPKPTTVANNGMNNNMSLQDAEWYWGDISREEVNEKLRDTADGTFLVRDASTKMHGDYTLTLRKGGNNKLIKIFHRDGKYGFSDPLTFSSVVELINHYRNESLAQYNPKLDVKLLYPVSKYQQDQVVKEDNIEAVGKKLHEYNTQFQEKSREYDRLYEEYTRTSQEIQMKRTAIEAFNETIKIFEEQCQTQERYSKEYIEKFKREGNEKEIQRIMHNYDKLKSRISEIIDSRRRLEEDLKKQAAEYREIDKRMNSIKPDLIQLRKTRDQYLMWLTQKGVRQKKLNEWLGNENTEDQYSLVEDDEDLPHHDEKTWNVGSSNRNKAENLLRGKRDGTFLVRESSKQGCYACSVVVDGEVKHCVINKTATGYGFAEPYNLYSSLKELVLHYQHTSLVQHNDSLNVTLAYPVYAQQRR

IC50 (PI3K-alpha) | IC50 (LNCap) | IC50 (mTOR) | SMILES | IC50 (MDA468)
63.5 nM | 1100 nM | 4.15 nM | CNCc1ccc(NC(=O)Nc2ccc(-c3nc(CS(C)(=O)=O)cc(N4CC5CCC(C4)O5)n3)cc2)cc1 [1-{4-[(methylamino)methyl]phenyl}-3-(4-{4-[(methylsulfonyl)methyl]-6-(8-oxa-3-azabicyclo[3.2.1]oct-3-yl)pyrimidin-2-yl}phenyl)urea] | 1560 nM
1840 nM | 2500 nM | 132 nM | CNC(=O)Nc1ccc(-c2nccc(N3CC4CCC(C3)O4)n2)cc1 [1-methyl-3-{4-[4-(8-oxa-3-azabicyclo[3.2.1]oct-3-yl)pyrimidin-2-yl]phenyl}urea] | 10500 nM
137 nM | 130 nM | 2.45 nM | O=C(Nc1ccncc1)Nc1ccc(-c2cc(N3CC4CCC(C3)O4)nc(N3CC4CCC(C3)O4)n2)cc1 [1-[4-(2,6-di-8-oxa-3-azabicyclo[3.2.1]oct-3-ylpyrimidin-4-yl)phenyl]-3-pyridin-4-ylurea] | 380 nM
141 nM | 120 nM | 19 nM | CN(C)CCOc1ccc(NC(=O)Nc2ccc(-c3nc(-c4ccccc4)cc(N4CC5CCC(C4)O5)n3)cc2)cc1 [1-{4-[2-(dimethylamino)ethoxy]phenyl}-3-{4-[4-(8-oxa-3-azabicyclo[3.2.1]oct-3-yl)-6-phenylpyrimidin-2-yl]phenyl}urea] | 300 nM
229 nM | 290 nM | 5.6 nM | O=C(Nc1ccncc1)Nc1ccc(-c2nc(-c3ccccc3)cc(N3CC4CCC(C3)O4)n2)cc1 [1-{4-[4-(8-oxa-3-azabicyclo[3.2.1]oct-3-yl)-6-phenylpyrimidin-2-yl]phenyl}-3-pyridin-4-ylurea] | 390 nM
328 nM | 2.4 nM | 2.55 nM | CN1CCN(c2ccc(NC(=O)Nc3ccc(-c4nc(N5CC6CCC(C5)O6)cc(N5CC6CCC(C5)O6)n4)cc3)cc2)CC1 [1-[4-(4,6-di-8-oxa-3-azabicyclo[3.2.1]oct-3-ylpyrimidin-2-yl)phenyl]-3-[4-(4-methylpiperazin-1-yl)phenyl]urea] | 19 nM
3930 nM | 800 nM | 38.5 nM | O=C(Nc1ccc(-c2cc(N3CC4CCC(C3)O4)nc(N3CC4CCC(C3)O4)n2)cc1)NC1CC1 [1-cyclopropyl-3-[4-(2,6-di-8-oxa-3-azabicyclo[3.2.1]oct-3-ylpyrimidin-4-yl)phenyl]urea] | 6000 nM
1020 nM | 300 nM | 2.15 nM | CN1CCN(c2ccc(NC(=O)Nc3ccc(-c4cc(N5CC6CCC(C5)O6)nc(-c5ccc(NC(=O)Nc6ccc(N7CCN(C)CC7)cc6)cc5)n4)cc3)cc2)CC1 [N′,N′″-{[6-(8-oxa-3-azabicyclo[3.2.1]oct-3-yl)pyrimidine-2,4-diyl]di-4,1-phenylene}bis{1-[4-(4-methylpiperazin-1-yl)phenyl]urea}] | 760 nM
280 nM | 50 nM | 2.45 nM | O=C(Nc1ccncc1)Nc1ccc(-c2nc(N3CC4CCC(C3)O4)cc(C(F)(F)F)n2)cc1 [1-{4-[4-(8-oxa-3-azabicyclo[3.2.1]oct-3-yl)-6-(trifluoromethyl)pyrimidin-2-yl]phenyl}-3-pyridin-4-ylurea] | 250 nM
700 nM | 190 nM | 3 nM | CNC(=O)Nc1ccc(-c2nc(OC(C)C)cc(N3CC4CCC(C3)O4)n2)cc1 [1-methyl-3-{4-[4-(1-methylethoxy)-6-(8-oxa-3-azabicyclo[3.2.1]oct-3-yl)pyrimidin-2-yl]phenyl}urea] | 890 nM
4640 nM | 1000 nM | 5.7 nM | CS(=O)(=O)Cc1cc(N2CC3CCC(C2)O3)nc(-c2ccc(NC(=O)NC3CC3)cc2)n1 [1-cyclopropyl-3-(4-{4-[(methylsulfonyl)methyl]-6-(8-oxa-3-azabicyclo[3.2.1]oct-3-yl)pyrimidin-2-yl}phenyl)urea] | 2500 nM
343 nM | 15 nM | 2.95 nM | CN1CCN(c2ccc(NC(=O)Nc3ccc(-c4nc(CS(C)(=O)=O)cc(N5CC6CCC(C5)O6)n4)cc3)cc2)CC1 [1-[4-(4-methylpiperazin-1-yl)phenyl]-3-(4-{4-[(methylsulfonyl)methyl]-6-(8-oxa-3-azabicyclo[3.2.1]oct-3-yl)pyrimidin-2-yl}phenyl)urea] | 30 nM
2050 nM | 450 nM | 11 nM | CCNC(=O)Nc1ccc(-c2nc(-c3ccccc3)cc(N3CC4CCC(C3)O4)n2)cc1 [1-ethyl-3-{4-[4-(8-oxa-3-azabicyclo[3.2.1]oct-3-yl)-6-phenylpyrimidin-2-yl]phenyl}urea] | 1900 nM
2430 nM | 78 nM | 17.5 nM | CN1CCN(c2ccc(NC(=O)Nc3ccc(-c4nc(-c5ccccc5)cc(N5CC6CCC(C5)O6)n4)cc3)cc2)CC1 [1-[4-(4-methylpiperazin-1-yl)phenyl]-3-{4-[4-(8-oxa-3-azabicyclo[3.2.1]oct-3-yl)-6-phenylpyrimidin-2-yl]phenyl}urea] | 270 nM
5000 nM | 240 nM | 9.4 nM | O=C(Nc1ccc(-c2cc(N3CC4CCC(C3)O4)nc(-c3ccc(NC(=O)OCCO)cc3)n2)cc1)OCCO [bis(2-hydroxyethyl) {[6-(8-oxa-3-azabicyclo[3.2.1]oct-3-yl)pyrimidine-2,4-diyl]di-4,1-phenylene}biscarbamate] | 1600 nM

SMILES | IC50 (PI3K-alpha) | IC50 (LNCap) | IC50 (mTOR) | IC50 (MDA468)
CC(C)Nc1cc(N2C3CCC2COC3)nc(-c2ccc(NC(=O)Nc3ccc(N4CCN(C)CC4)nc3)cc2)n1 [1-{4-[4-(isopropylamino)-6-(3-oxa-8-azabicyclo[3.2.1]oct-8-yl)pyrimidin-2-yl]phenyl}-3-[6-(4-methylpiperazin-1-yl)pyridin-3-yl]urea] | 3870 nM | 90 nM | 4.2 nM | 100 nM
CC(C)Nc1cc(N2C3CCC2COC3)nc(-c2ccc(NC(=O)Nc3ccc(CN4CCN(C)CC4)cc3)cc2)n1 [1-{4-[4-(isopropylamino)-6-(3-oxa-8-azabicyclo[3.2.1]oct-8-yl)pyrimidin-2-yl]phenyl}-3-{4-[(4-methylpiperazin-1-yl)methyl]phenyl}urea] | 3410 nM | 70 nM | 3.2 nM | 110 nM
CN1CCN(Cc2ccc(NC(=O)Nc3ccc(-c4nc(N5C6CCC5COC6)cc(N5C6CCC5COC6)n4)cc3)cc2)CC1 [1-[4-(4,6-di-3-oxa-8-azabicyclo[3.2.1]oct-8-ylpyrimidin-2-yl)phenyl]-3-{4-[(4-methylpiperazin-1-yl)methyl]phenyl}urea] | 1950 nM | ≤ 0.8 nM | 2.25 nM | 4 nM
CN(C)CCOc1ccc(NC(=O)Nc2ccc(-c3nc(N4C5CCC4COC5)cc(N4C5CCC4COC5)n3)cc2)cc1 [1-{4-[2-(dimethylamino)ethoxy]phenyl}-3-[4-(4,6-di-3-oxa-8-azabicyclo[3.2.1]oct-8-ylpyrimidin-2-yl)phenyl]urea] | 1540 nM | 4 nM | 2.5 nM | 9 nM
CC(C)Nc1cc(N2C3CCC2COC3)nc(-c2ccc(NC(=O)Nc3ccc(N4CCN(C)CC4)cc3)cc2)n1 [1-{4-[4-(isopropylamino)-6-(3-oxa-8-azabicyclo[3.2.1]oct-8-yl)pyrimidin-2-yl]phenyl}-3-[4-(4-methylpiperazin-1-yl)phenyl]urea] | 2000 nM | 19 nM | 2.7 nM | 34 nM
